4 compounds from patent US20030113421A1, “Synergistic combinations of natural of compounds that control decay of fruits and vegetables and reduce contamination by foodborne human pathogens” (priority 2001, published 2003) can be followed below.

In assay [1] the test system is B. cinerea. In words: Effect of concentration and of synergistic combinations of essential oils and chitosan salts on spore germination of B. cinerea. The class given is cell-based, Botrytis cinerea. The procedure: (§1) E. coli (Strain #139 HB101/p5G6) was grown at 24° C. for 48 hr in shake-flask cultures of Lennox broth (LB). Bacterial cells were pelleted by centrifugation in a Sorvall RC-58 centrifuge (Dupont Instruments, Wilmington, Del.) at 3000 g for 20 min, resuspended in sterile distilled water, and centrifuged again. The resulting pellets were dispersed in sterile distilled water and the cell concentration was adjusted to 10^6 CFU per ml using a standard optical density (OD) curve with the OD values of 0.1 and 1 representing viable cell counts of 1×10^6 and 1×10^9, respectively. E. coli 015:H7 and L. monocytogenes isolates were grown overnight at 37° C. in trypticase soy broth and brain heart infusion, respectively. The concentration of cells was adjusted to 10^6 CFU per ml. Botrytis cinerea and Penicillium expansum were isolated from infected fruit and maintained on potato dextrose agar (PDA). A spore suspension was obtained by flooding 2 wk cultures of B. cinerea with sterile distilled water containing 0.1% (v/v) TWEEN 80. Spore counts were determined with a hemacytometer and spore concentrations were adjusted with sterile distilled water to obtain 10^5 spores per ml.
(§2) The individual effects of various essential oils and chitosan salts, and the combined effects of essential oils and chitosan salts on the growth of the indicator organism E. coli and on the postharvest pathogen B. cinerea were determined. To measure the effects of the various treatments on spore germination of B. cinerea and growth of the E. coli, the essential oils: bay, cinnamon, savory, thyme red, allspice, birch, cloves, carvacrol, and hinokitiol (Aroma Vera, Cuber City, Calif.) and MMW chitosan in acetic, propionic, and sorbic acids were combined together with B. cinerea or E. coli to yield final concentrations of 0.1 to 0.025% for the essential oils and 0.1 to 0.0016% for the chitosan salts. For the assays, 500 spores of B. cinerea were added to each treatment in microtiter dishes or three ml of a 2X concentration of E. coli (i.e., 2×10^6 CFU/ml) were combined with three ml of a 2X concentration of treatment in a 15 ml centrifuge tube, agitated overnight, and plated after 24 hr onto LB agar plates (100 μl suspension/plate). The surfactant (Triton×100) was present at a final concentration of 0.04%. […] Four replicate tubes of each treatment were used; each experiment was repeated twice. The viable bacterial cell number was counted by surface plating serially diluted samples in triplicate on LB agar medium. Plates were incubated at 24° C. and colonies were counted at 48 hr. Botrytis spore germination was determined microscopically.

Assay [2] has as its system E. coli. The class given is cell-based, Escherichia coli. Conditions: for concentration at which inhibitory to E. coli growth: essential oil tested individually. The procedure:
as §1, §2

In assay [3] the test system is E. coli on apple disks. Details: species or system Escherichia coli. How it is done: as §1
Tree-ripe apples (Malus domestica Borkh) cultivar ‘Red delicious’ were hand-picked at harvest maturity at the Appalachian Fruit Research Station, Kearneysville, W. Va. Fruit were sorted to remove any with apparent injuries or infections and stored at 4° C. under refrigeration before being used in the biocontrol tests. Apple disks (10 mm) were excised from selected Red delicious apples using a cork borer. Apple disks were treated by immersion for 90 min in a 0.1% solution of various essential oils and/or their combinations with 0.1 % chitosan salts. Disks were either treated with the different combinations of natural compounds and then inoculated with E. coli by soaking apple disks in a solution of E. coli for 90 min or inoculated with E. coli and incubated at 24° C. for 24 hr. From each treatment four disks were selected randomly, individually homogenized in 5 ml of sterile water, vortexed, and dilution plated in triplicate on a LB agar medium. Plates were incubated at 24° C. and colonies were counted after 48 hr.

The mark [4] stands for this setting: essential oil alone 0.025% v/v, CFU in 100 μl sample.
[5] abbreviates: essential oil alone 0.05% v/v, CFU in 100 μl sample.
The mark [6] stands for this setting: essential oil alone 0.075% v/v, CFU in 100 μl sample.
The mark [7] stands for this setting: essential oil alone 0.1% v/v, CFU in 100 μl sample.

Structures are written as SMILES. Read-outs that look alike come from different tables or passages of the source.

With `CC(C)c1cccc(=O)c(O)c1` [Hinokitiol, hinokitiol], the “Percent Inhibition of Spore Germination, combination” value in assay [1], in assay [1] (essential oil 0.067% + Chitosan acetate 0.02%) and in assay [1] (essential oil 0.067% + Chitosan propionate 0.02%) was 100% each time. Besides, the “Percent Inhibition of Spore Germination, synergy table” value in assay [1] (essential oil 0.067% + Water (no chitosan salt)) is 0%. Further, the “Growth of E. coli (CFU), combination” value in assay [2] is given as 60 CFU; in assay [2] (essential oil 0.075% + Chitosan acetate 0.0032%, CFU in 100 μl sample), 102 CFU; in assay [2] (essential oil 0.075% + Chitosan propionate 0.0032%, CFU in 100 μl sample), 56 CFU. Also, the “Growth of E. coli (CFU), synergy table” value in assay [2] (essential oil 0.075% + Water (no chitosan salt), CFU in 100 μl sample) is 1108 CFU. For the same compound, the “Growth of E. coli (CFU)” value is on record as “TNTC” in assay [2] (setting [4]), “TNTC” in assay [2] (setting [5]), 812 CFU in assay [2] (setting [6]) and 0 CFU in assay [2] (setting [7]). For the same compound, the “concentration at which inhibitory to E. coli growth” value in assay [2] was found to be 0.075%.
In the case of `Cc1ccc(C(C)C)cc1O` [Carvacrol, carvacrol], the “Growth of E. coli (CFU), synergy table” value in assay [2] amounted to 1430 CFU. Further, the “Growth of E. coli (CFU)” value in assay [2] (setting [4]) is listed as “TNTC”; in assay [2] (setting [5]), 0 CFU; in assay [2] (setting [6]), 0 CFU; in assay [2] (setting [7]) it was 0 CFU. In addition, in assay [2], the “concentration at which inhibitory to E. coli growth” value is 0.05%.
For the compound `CCC(=O)O` [Propionate], the “Eradicant Activity E. coli (CFU)” value in assay [3] (apple disks immersed in 10^6 CFU per ml E. coli for 90 min, drained, then treated (0.1% v/v)) is given as “TNTC”. Further, in assay [3] (apple disks treated (0.1% v/v), thereafter immersed in 10^6 CFU per ml E. coli for 90 min, CFU in 100 ml sample), the “Protectant Activity E. coli (CFU)” value was “TNTC”.
For `CC=CC=CC(=O)O` [Sorbate], in assay [3], the “Eradicant Activity E. coli (CFU)” value is recorded as “TNTC” and the “Protectant Activity E. coli (CFU)” value is “TNTC”.
